According to US20030129180A1, “Products and methods for treating microbial infections” (The Proctor & Gamble Company, priority 2001, published 2003):

Columns and labels:
T. rubrum = experiment: Relative growth of pre-germinated arthrospores in ESD broth tubes; format: cell-based; design: key: −: - (no growth); relative scale from - (no growth) to +++ (maximal growth); relative scale from - (no growth) to +++ (maximal growth); +++ (maximal growth); conditions: clotrimazole control, 20 μ/ml per tube, 30° C.
Procedure: (§1) Purified arthrospore suspensions of T. mentagrophytes or T. rubrum (prepared as per L. R. Wright et al., 1983, J. Antimicrob. Chemotherapy 12:317-327), diluted to a concentration of 1×10^6 cfu/ml in Emmon's modification of Sabouraud Dextrose Broth (ESD—R. Atlas, 1997, Handbook of microbiological media, CRC Press Inc., Boca Raton, Fla.), are incubated for 6 hours at 26° C. or 30° C., respectively, to pre-germinate spores. Enzyme preparations of chitinase (Sigma Cat. No. C-1525) and β1-1,3-glucanase (Sigma Cat. No. L-2524) are diluted into 3 ml volumes of ESD in capped glass tubes, to final concentrations of each enzyme ranging from 0 to 100 ppm. Clotrimazole controls are also prepared, to a final concentration of 20 μ/ml per tube.
(§2) Each tube is then inoculated with 10 μl (1×10^4 cfu) of either the T. mentagrophytes or T. rubrum pre-germinated arthrospore suspension, followed by incubation on a shaker at 200 rpm, at 26° C. or 30° C., respectively, for a total of 41 hours.

T. mentagrophytes = experiment: as above; format: cell-based; design: key: −: - (no growth); relative scale from - (no growth) to +++ (maximal growth); relative scale from - (no growth) to +++ (maximal growth); +++ (maximal growth); conditions: clotrimazole control, 20 μ/ml per tube, 26° C.
Procedure: as §1, §2

Clc1ccccc1C(c1ccccc1)(c1ccccc1)n1ccnc1 [clotrimazole]
−: Growth, T. rubrum, 18 hours (T. rubrum; 18 hours) | Growth, T. rubrum, 41 hours (T. rubrum; 41 hours) | Growth, T. mentagrophytes, 18 hours (T. mentagrophytes; 18 hours) | Growth, T. mentagrophytes, 41 hours (T. mentagrophytes; 41 hours)
